# Measured values as given in publication PMC6114080 (International Journal for Parasitology: Drugs and Drug …, 2018).
# Tests used:
# Type in all cases: biochemical
# [1] = molecular target: HsGPI (Homo sapiens, UniProt P06744); assay: G6PDH-coupled NADH assay at […] nm
# [2] = molecular target: T1, CpGPI (MBP-CpGPI) (Cryptosporidium parvum, UniProt Q5CTF8); assay: G6PDH-coupled NADH assay at […] nm
# T1 sequence (Q5CTF8 1-567): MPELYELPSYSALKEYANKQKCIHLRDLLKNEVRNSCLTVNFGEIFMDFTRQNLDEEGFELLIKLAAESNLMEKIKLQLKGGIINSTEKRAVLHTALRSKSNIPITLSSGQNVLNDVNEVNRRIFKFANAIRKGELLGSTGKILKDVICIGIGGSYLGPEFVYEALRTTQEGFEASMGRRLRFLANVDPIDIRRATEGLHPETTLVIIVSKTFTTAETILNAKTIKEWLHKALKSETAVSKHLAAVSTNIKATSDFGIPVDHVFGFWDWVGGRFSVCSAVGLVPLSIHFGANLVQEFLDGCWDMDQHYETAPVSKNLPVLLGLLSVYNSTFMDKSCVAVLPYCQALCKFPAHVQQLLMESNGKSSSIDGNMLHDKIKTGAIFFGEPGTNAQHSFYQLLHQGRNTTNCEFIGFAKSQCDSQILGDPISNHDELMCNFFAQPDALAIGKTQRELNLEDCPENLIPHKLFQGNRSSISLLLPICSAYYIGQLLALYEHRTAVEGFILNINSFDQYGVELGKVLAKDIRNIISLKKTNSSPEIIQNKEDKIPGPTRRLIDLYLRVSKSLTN
# [3] = molecular target: T1, CpGPI (MBP-CpGPI); assay: G6PDH-coupled NADH assay at […] nm, mixed noncompetitive fit
Compound,IC50 [1] [µM],IC50 [2] [µM],Ki [3] [µM]
"O=c1c2ccccc2[se]n1-c1ccccc1 [ebselen, 2-phenyl-1,2-benzisoselenazol-3(2H)-one]",> 400,8.33,36.3
O=C[C@H](O)[C@H](O)COP(=O)(O)O [erythrose-4-phosphate],–,132,–
